# According to patent US20080268477A1, “Antibody Reactive Specifically to Age Derived from 3,4-Dge” (JMS CO., LTD., priority 2005, published 2008):
# Legend:
# [1] = test system: Human peritoneal mesothelial cells (HPMCs); experiment: cytotoxic test of AGE-proteins (WST-1); type: cell-based; settings: 1 mg/mL AGE-protein, four days
# Description: In order to examine the biological activities of AGE-proteins derived from various carbonyl compounds, a cytotoxic test was carried out. The AGE-proteins used herein were 3,4-DGE-BSA, MGO-BSA, GO-BSA, and AA-BSA that had been prepared in the same manner as in Example 3.
# Human peritoneal mesothelial cells (HPMCs) that had been suspended in FBS-M199 medium were seeded into a 96-well plate (manufactured by Iwaki) in an amount of 3400 cells/well and then were cultured overnight. Adherent cells in each well were exposed to M199 medium (0.1 ml/well) containing 8.4% FBS in which AGE-proteins had been dissolved in such a manner as to be 1 mg/mL, and were cultured for four days. After completion of the exposure, the medium was removed. Thereafter, the adherent cells were cultured in M199 medium containing a 10% chromogenic substrate (Trade Name: WST-1; manufactured by TAKARA BIO, INC.). Then the absorbance at a wavelength of 450 nm was measured 40 minutes later and thereby the viable cell count was determined. The result is shown in the graph in FIG. 15. In FIG. 15, “DGE-BSA” denotes “3,4-DGE-BSA”.
# BSA [2] = target: T1, BSA (Bos taurus, UniProt P02769); experiment: appearance (browning) of reaction solution of carbonyl compound and BSA; set-up: species or system bovine; settings: 25 mM carbonyl compound, BSA 5 mg/ml, 37° C.; for browning of reaction solution: 168 hours
# T1 construct: purchased SIGMA A-0281
# Description: AGEs were formed from proteins, BSA, using carbonyl compounds (3,4-DGE, MGO, GO, 3-DG, and Glu). First, BSA (manufactured by SIGMA; Trade Name: A-0281) was dissolved in PBS (pH 7.4) so as to have a concentration of 5 mg/ml (6.2 mM of basic amino acid residues). Thus a BSA solution was prepared. Then each carbonyl compound was added to the BSA solution so as to have a concentration of 25 mM (4-equivalent relative to the basic amino acid residues in the BSA). This was incubated at 37° C. for predetermined times (2, 4, 8, 24, 72, and 168 hours). The respective carbonyl compounds used herein were 500 mM 3,4-DGE aqueous solution (prepared in house), 40% MGO aqueous solution (manufactured by SIGMA), 40% GO aqueous solution (manufactured by Wako Pure Chemical Industries, Ltd.), 3-DG (manufactured by Dojindo Laboratories Co., Ltd.), and Glu (Pharmacopeia, manufactured by San-ei Sucrochemical Co, Ltd.). The BSA solution was incubated in the same manner as described above, with no carbonyl compounds being added thereto. This was used as a control. The appearances of the reaction solutions obtained after 168 hours incubation are shown in the photograph in FIG. 9.
# BSA [3] = target: T1, BSA; experiment: fluorescence intensity of reaction solution of carbonyl compound and BSA (Reference Example 1); set-up: species or system bovine; settings: excitation 360 nm, fluorescence 430 nm
# Description: AGEs were formed from proteins, BSA, using carbonyl compounds (3,4-DGE, MGO, GO, 3-DG, and Glu). First, BSA (manufactured by SIGMA; Trade Name: A-0281) was dissolved in PBS (pH 7.4) so as to have a concentration of 5 mg/ml (6.2 mM of basic amino acid residues). Thus a BSA solution was prepared. Then each carbonyl compound was added to the BSA solution so as to have a concentration of 25 mM (4-equivalent relative to the basic amino acid residues in the BSA). This was incubated at 37° C. for predetermined times (2, 4, 8, 24, 72, and 168 hours). […]
# The reaction solutions incubated as described above were sampled and these reaction solutions thus sampled were applied to desalting columns (Trade Name: PD-10, manufactured by Amersham Pharmacia Biotech) to be desalted. With respect to the reaction solutions thus desalted, the BSA concentration was measured using BCA protein assay kit (manufactured by Pierce). […] Then the fluorescence intensity was measured at an excitation wavelength of 360 nm and a fluorescence wavelength of 430 nm (measuring apparatus: Trade Name SPECTRAFLUOR PLUS, manufactured by TECAN). […]
# BSA [4] = target: T1, BSA; experiment: ELISA for known AGEs (pentosidine, CML, MRX) in reaction product; set-up: species or system bovine
# Description: With respect to the above-mentioned sample solutions obtained using the carbonyl compounds (3,4-DGE, 3-DG, GO, and MGO), it was evaluated by ELISA whether pentosidine, carboxymethyllysine (CML), and Maillard reaction products (MRX: 8-hydroxy-5-methyldihydrothiazolo[3,2-alpha]) that were known AGEs had been produced or not. As a result, in the reaction solution obtained using GO, production of CML of 3.025 molecules per BSA molecule was found already after 24 hours incubation and production of CML of 3.7 molecules per BSA molecule was found after 168 hours incubation. In the reaction solution obtained using MGO, pentosidine of 0.0028 molecule per BSA molecule was found after 168 hours incubation. […] Accordingly, it can be said that the AGEs formed with 3,4-DGE are clearly different from conventionally known AGEs.
# BSA [5] = target: T1, BSA; experiment: amino acid analysis of Arg and Lys residues in reaction product; set-up: species or system bovine; settings: residual ratio vs untreated native BSA
# Description: The aforementioned sample solutions were freeze-dried and then were acid-hydrolyzed in 6N hydrochloric acid (120° C., 24 hours). According to a conventionally known method, these were derivatized with dansyl chloride and were isolated with HPLC. Then the amounts of arginine (Arg) and lysine (Lys) residues in the samples were determined (n=3). FIG. 11(A) is a graph showing the residual ratios of the Arg residues, while FIG. 11(B) is a graph showing the residual ratios of the Lys residues. The residual ratio indicates a percentage that is obtained with the amount of residues in untreated native BSA being taken as 100%.
# BSA [6] = target: T1, BSA; experiment: isoelectric focusing of reaction product; set-up: species or system bovine; settings: reaction product with BSA
# Description: A pI marker was electrophoresed beforehand and then a calibration curve between pI and mobility was created. Then the aforementioned sample solutions also were electrophoresed. With a region stained deepest in each sample being taken as the center of the band, the isoelectric point was calculated using the calibration curve.
# BSA [7] = target: T1, BSA; experiment: SDS-PAGE of reaction product; set-up: species or system bovine; settings: samples of 2 to 168 hours reaction
# Description: The samples obtained using 3,4-DGE and MGO each were subjected to SDS-PAGE. The results are shown in the electrophoretograms in FIG. 13. […] The lanes show the results with respect to the molecular-weight marker, native BSA, and samples (2, 4, 8, 24, 72, and 168 hours) sequentially from the left.
# BSA [8] = target: T1, BSA; experiment: reactivity with protein by fluorescence intensity (Reference Example 2); set-up: species or system bovine; settings: 30 mmol/L carbonyl compound, BSA 10 mg/ml, 37° C., 24 hours
# Description: BSA was dissolved in PBS (pH 7.4) so as to be 10 mg/ml. Various carbonyl compounds each were added thereto in such a manner as to have a concentration of 30 mmol/L. Then they were allowed to react at 37° C. for 24 hours. After the reaction, denaturation (AGE formation) of the BSA was evaluated according to the fluorescence intensity (at an excitation wavelength of 360 nm and a fluorescence wavelength of 430 nm) of the reaction solutions.
# T1 sequence (P02769 25-607): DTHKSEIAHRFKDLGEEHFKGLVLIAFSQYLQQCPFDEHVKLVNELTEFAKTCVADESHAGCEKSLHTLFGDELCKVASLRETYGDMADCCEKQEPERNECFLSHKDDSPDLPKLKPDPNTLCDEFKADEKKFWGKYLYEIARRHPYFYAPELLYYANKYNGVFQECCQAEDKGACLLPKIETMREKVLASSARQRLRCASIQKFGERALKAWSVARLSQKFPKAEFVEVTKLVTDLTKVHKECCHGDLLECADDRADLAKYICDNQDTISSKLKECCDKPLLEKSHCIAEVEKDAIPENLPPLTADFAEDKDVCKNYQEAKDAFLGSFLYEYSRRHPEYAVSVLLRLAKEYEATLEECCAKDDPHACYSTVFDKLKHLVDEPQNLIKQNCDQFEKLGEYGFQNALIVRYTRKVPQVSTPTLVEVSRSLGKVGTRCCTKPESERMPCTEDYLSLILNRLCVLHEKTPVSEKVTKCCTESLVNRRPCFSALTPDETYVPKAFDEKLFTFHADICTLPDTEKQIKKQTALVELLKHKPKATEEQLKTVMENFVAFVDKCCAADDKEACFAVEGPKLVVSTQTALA
molecule,measurement,setting,value
"3,4-DGE-BSA: AGE-protein formed from bovine serum albumin with 3,4-DGE",activity of the cells (viable cell count),[1],approximately 25%
"O=CC(=O)C=CC(O)CO (stereo not shown) [3,4-DGE, 3,4-dideoxyglucosone-3-ene]",time until reaction solution was colored,BSA [2],approximately two
same,browning of reaction solution,BSA [2],deep brown
same,reaction time at which fluorescence nearly achieved equilibrium,BSA [3],~24 h
same,fluorescence intensity,BSA [3]; compared to other carbonyl compounds,very high fluorescence intensity
same,"production of CML, pentosidine, MRX",BSA [4]; ELISA of reaction solution,"production of neither CML, pentosidine, or MRX was found"
same,free Arg and Lys residues in reaction product,BSA [5],reduced
same,change in isoelectric point,BSA [6],shift toward the acidic side after 24 hours reaction
same,change in SDS-PAGE band,BSA [7],disturbance in the band is observed after 2 to 4 hours reaction
same,fluorescence of BSA solution (AGE formation),BSA [8],very strong fluorescence
"O=CC(=O)C[C@H](O)[C@H](O)CO [Example 3-DG, 3-deoxyglucosone]",browning of reaction solution,BSA [2],observed
"O=CC=O [GO, glyoxal]",browning of reaction solution,BSA [2],observed
same,production of CML,BSA [4]; after 24 hours incubation,3.025 molecules per BSA molecule
same,production of CML,BSA [4]; after 168 hours incubation,3.7 molecules per BSA molecule
"CC(=O)C=O [MGO, methylglyoxal]",browning of reaction solution,BSA [2],observed
same,pentosidine,BSA [4]; after 168 hours incubation,0.0028 molecule per BSA molecule
